# Source: patent publication US20240174662A1, “SMALL MOLECULE INHIBITORS OF SALT INDUCIBLE KINASES” (Janssen Biotech, Inc., priority 2021, published 2024)
# Molecular target: SIK2 (Homo sapiens (Human), UniProt Q9H0K1)
# Assay: SIK2 Enzymatic Assay Version 2 (High ATP)
# Format: biochemical
# Details: 3 mM ATP and 200 μM HDAC5tide final, ADP-Glo Max luminescence
# Method in brief: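 Run at room temperature; SIK2 enzyme at 6 nM (2× final) preincubated with compound 30 min before reaction. ADP formation detected by ADP-Glo Max (2 h reagent, 1 h detection) with luminescence read-out.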
# Chain of SIK2 (Q9H0K1 whole entry, species assumed): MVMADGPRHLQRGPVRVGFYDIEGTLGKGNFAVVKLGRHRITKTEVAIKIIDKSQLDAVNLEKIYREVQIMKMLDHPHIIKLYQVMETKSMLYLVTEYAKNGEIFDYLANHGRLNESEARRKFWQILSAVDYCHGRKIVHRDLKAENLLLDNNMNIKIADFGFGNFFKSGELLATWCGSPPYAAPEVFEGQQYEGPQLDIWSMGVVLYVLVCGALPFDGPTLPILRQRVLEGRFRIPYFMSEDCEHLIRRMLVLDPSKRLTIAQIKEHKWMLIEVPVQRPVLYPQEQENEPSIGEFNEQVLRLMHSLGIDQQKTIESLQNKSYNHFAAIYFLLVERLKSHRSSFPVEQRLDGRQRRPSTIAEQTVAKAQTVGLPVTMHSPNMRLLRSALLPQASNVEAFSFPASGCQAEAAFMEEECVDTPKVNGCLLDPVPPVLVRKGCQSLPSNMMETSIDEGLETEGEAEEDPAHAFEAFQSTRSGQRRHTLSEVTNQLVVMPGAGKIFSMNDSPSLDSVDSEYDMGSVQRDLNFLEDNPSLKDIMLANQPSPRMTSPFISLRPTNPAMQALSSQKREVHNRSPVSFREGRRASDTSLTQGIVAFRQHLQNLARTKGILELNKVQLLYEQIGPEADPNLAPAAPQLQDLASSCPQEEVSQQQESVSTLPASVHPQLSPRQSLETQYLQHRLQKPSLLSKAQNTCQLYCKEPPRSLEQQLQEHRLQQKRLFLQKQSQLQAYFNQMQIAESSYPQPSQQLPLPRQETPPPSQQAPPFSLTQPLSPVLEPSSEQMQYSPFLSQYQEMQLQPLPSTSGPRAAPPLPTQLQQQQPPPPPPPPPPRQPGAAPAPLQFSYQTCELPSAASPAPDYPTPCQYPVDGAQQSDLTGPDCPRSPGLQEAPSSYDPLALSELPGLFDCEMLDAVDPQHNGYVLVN
row,SMILES,IC50 [µM]
1,"Cc1cc(Nc2cc3cc(-c4c(CO[C@@H]5CN(C)C[C@@H]5C)cnn4C)ccn3n2)nc(C)n1 (stereo in doubt) [Example 369, CIS—*S, *S—N-(2,6-dimethylpyrimidin-4-yl)-5-[4-[(1,4-dimethylpyrrolidin-3-yl)oxymethyl]-2-methyl-pyrazol-3-yl]pyrazolo[1,5-a]pyridin-2-amine]",0.002
2,"Cc1cncc(Nc2cc3cc(-c4c(CO[C@H]5CN(C)C[C@H]5C)cnn4C)ccn3n2)n1 (stereo in doubt) [Example 370, CIS-Rac-5-[4-[(1,4-dimethylpyrrolidin-3-yl)oxymethyl]-2-methyl-pyrazol-3-yl]-N-(6-methylpyrazin-2-yl)pyrazolo[1,5-a]pyridin-2-amine]",0.0029
3,"Cc1cnc(Nc2cc3cc(-c4c(CO[C@H]5CN(C)C[C@@H]5C)cnn4C)ccn3n2)cn1 (stereo in doubt) [Example 372, Trans-*S, *R-5-[4-[(1,4-dimethylpyrrolidin-3-yl)oxymethyl]-2-methyl-pyrazol-3-yl]-N-(5-methylpyrazin-2-yl)pyrazolo[1,5-a]pyridin-2-amine]",0.0244
4,"Cc1cncc(Nc2cc3cc(-c4c(CO[C@H]5CN(C)C[C@@H]5C)cnn4C)ccn3n2)n1 (stereo in doubt) [Example 374, Trans-*S, *R-5-[4-[(1,4-dimethylpyrrolidin-3-yl)oxymethyl]-2-methyl-pyrazol-3-yl]-N-(6-methylpyrazin-2-yl)pyrazolo[1,5-a]pyridin-2-amine]",0.0173
5,"Cc1cncc(Nc2cc3cc(-c4c(CO[C@@H]5CN(C)C[C@H]5C)cnn4C)ccn3n2)n1 (stereo in doubt) [Example 375, Trans-*R, *S-5-[4-[(1,4-dimethylpyrrolidin-3-yl)oxymethyl]-2-methyl-pyrazol-3-yl]-N-(6-methylpyrazin-2-yl)pyrazolo[1,5-a]pyridin-2-amine]",0.0031
6,"Cc1cnc(Nc2cc3cc(-c4c(CO[C@@H]5CN(C)C[C@H]5C)cnn4C)ccn3n2)cn1 (stereo in doubt) [Example 377, CIS—*R, *R-5-[4-[(1,4-dimethylpyrrolidin-3-yl)oxymethyl]-2-methyl-pyrazol-3-yl]-N-(5-methylpyrazin-2-yl)pyrazolo[1,5-a]pyridin-2-amine]",0.0148
7,"Cc1cncc(Nc2cc3cc(-c4c(CO[C@H]5CN(C)C[C@H]5C)cnn4C)ccn3n2)n1 (stereo in doubt) [Example 378, CIS—*R, *R-5-[4-[(1,4-dimethylpyrrolidin-3-yl)oxymethyl]-2-methyl-pyrazol-3-yl]-N-(6-methylpyrazin-2-yl)pyrazolo[1,5-a]pyridin-2-amine]",0.0122
8,"Cc1cncc(Nc2cc3cc(-c4c(CO[C@@H]5CN(C)C[C@@H]5C)cnn4C)ccn3n2)n1 (stereo in doubt) [Example 379, CIS—*S, *S-5-[4-[(1,4-dimethylpyrrolidin-3-yl)oxymethyl]-2-methyl-pyrazol-3-yl]-N-(6-methylpyrazin-2-yl)pyrazolo[1,5-a]pyridin-2-amine]",0.0022
9,"Cc1cnc(Nc2cc3cc(-c4c(CO[C@H]5CN(C)C[C@@H]5C)cnn4C)ccn3n2)cn1 (stereo in doubt) [Example 469, (rac-trans)-5-[4-[(1,4-dimethylpyrrolidin-3-yl)oxymethyl]-2-methyl-pyrazol-3-yl]-N-(5-methylpyrazin-2-yl)pyrazolo[1,5-a]pyridin-2-amine]",0.0273
10,"Cc1cc(Nc2cc3cc(-c4c(OC[C@H]5CCN5C)cnn4C)ccn3n2)nc(C)n1 [Example 2, N-(2,6-dimethylpyrimidin-4-yl)-5-[2-methyl-4-[[(2R)-1-methylazetidin-2-yl]methoxy]pyrazol-3-yl]pyrazolo[1,5-a]pyridin-2-amine]",< 0.000847
11,"CN1CC(C)(C)[C@H]1COc1cnn(C)c1-c1ccn2nc(NC(=O)C3CC3)cc2c1 [Example 3, N-[5-[2-methyl-4-[[(2S)-1,3,3-trimethylazetidin-2-yl]methoxy]pyrazol-3-yl]pyrazolo[1,5-a]pyridin-2-yl]cyclopropanecarboxamide]",0.0085
12,"Cn1ncc(OC[C@H]2NCC2(C)C)c1-c1ccn2nc(NC(=O)C3CC3)cc2c1 [Example 4, N-[5-[4-[[(2S)-3,3-dimethylazetidin-2-yl]methoxy]-2-methyl-pyrazol-3-yl]pyrazolo[1,5-a]pyridin-2-yl]cyclopropanecarboxamide]",0.0076
13,"Cn1ncc(OC[C@H]2CNCCO2)c1-c1ccn2nc(NC(=O)C3CC3)cc2c1 [Example 6, N-[5-[2-methyl-4-[[(2R)-morpholin-2-yl]methoxy]pyrazol-3-yl]pyrazolo[1,5-a]pyridin-2-yl]cyclopropanecarboxamide]",0.014
14,"CN1CC[C@H](Oc2cnn(C)c2-c2ccn3nc(Nc4cncc(C(F)(F)F)n4)cc3c2)C1 [Example 7, 5-[2-methyl-4-[(3S)-1-methylpyrrolidin-3-yl]oxy-pyrazol-3-yl]-N-[6-(trifluoromethyl)pyrazin-2-yl]pyrazolo[1,5-a]pyridin-2-amine]",0.0787
15,"CN1CC(COc2cnn(C)c2-c2ccn3nc(NC(=O)C4CC4)cc3c2)C1 [Example 8, N-[5-[2-methyl-4-[(1-methylazetidin-3-yl)methoxy]pyrazol-3-yl]pyrazolo[1,5-a]pyridin-2-yl]cyclopropanecarboxamide]",0.0189
16,"CN1C[C@@H](C(F)(F)F)[C@@H]1COc1cnn(C)c1-c1ccn2nc(NC(=O)C3CC3)cc2c1 [Example 10, N-[5-[2-methyl-4-[[(2R,3R)-1-methyl-3-(trifluoromethyl)azetidin-2-yl]methoxy]pyrazol-3-yl]pyrazolo[1,5-a]pyridin-2-yl]cyclopropanecarboxamide]",0.988
17,"CC[C@@H]1CN(C)[C@@H]1COc1cnn(C)c1-c1ccn2nc(NC(=O)C3CC3)cc2c1 [Example 11, N-[5-[4-[[(2S,3R)-3-ethyl-1-methyl-azetidin-2-yl]methoxy]-2-methyl-pyrazol-3-yl]pyrazolo[1,5-a]pyridin-2-yl]cyclopropanecarboxamide]",0.117
18,"C[C@H]1CN(C)[C@@H]1COc1cnn(C)c1-c1ccn2nc(NC(=O)C3CC3)cc2c1 [Example 12, N-[5-[4-[[(2S,3S)-1,3-dimethylazetidin-2-yl]methoxy]-2-methyl-pyrazol-3-yl]pyrazolo[1,5-a]pyridin-2-yl]cyclopropanecarboxamide]",0.117
19,"C[C@@H]1C[C@H]1C(=O)Nc1cc2cc(-c3c(OC[C@H]4CCN4C)cnn3C)ccn2n1 [Example 14, (1R,2R)-2-methyl-N-[5-[2-methyl-4-[[(2R)-1-methylazetidin-2-yl]methoxy]pyrazol-3-yl]pyrazolo[1,5-a]pyridin-2-yl]cyclopropanecarboxamide]",0.0017
20,"C[C@H]1C[C@@H]1C(=O)Nc1cc2cc(-c3c(OC[C@H]4CCN4C)cnn3C)ccn2n1 [Example 15, (1S,2S)-2-methyl-N-[5-[2-methyl-4-[[(2R)-1-methylazetidin-2-yl]methoxy]pyrazol-3-yl]pyrazolo[1,5-a]pyridin-2-yl]cyclopropanecarboxamide]",0.0091
21,"Cc1cc(Nc2cc3cc(-c4c(OC[C@H]5CCN5C)cnn4C)ccn3n2)nnc1C [Example 17, N-(5,6-Dimethylpyridazin-3-yl)-5-[2-methyl-4-[[(2R)-1-methylazetidin-2-yl]methoxy]pyrazol-3-yl]pyrazolo[1,5-a]pyridin-2-amine]",< 0.000847
